Laboratory results reported in US8143243B2, “Compounds for the treatment of hepatitis C” (Bristol-Myers Squibb Company, priority 2007, dated 2012).
pEC50, pIC50: −log10 of the molar value.

Legend:
HCV NS5B = molecular target: T1, HCV NS5B (Hepatitis C virus genotype 1b, UniProt Q9WMX2); test: HCV NS5B RdRp enzyme assay (standard / modified); assay type: biochemical; conditions: HCV RdRp genotype 1b enzyme; read-out: IC50
T1 construct: The protein was expressed with an 18 amino acid C-terminal truncation to enhance the solubility; made in house; host or cells: E. coli BL21 (DE3)
T1 sequence (Q9WMX2 2420-2992): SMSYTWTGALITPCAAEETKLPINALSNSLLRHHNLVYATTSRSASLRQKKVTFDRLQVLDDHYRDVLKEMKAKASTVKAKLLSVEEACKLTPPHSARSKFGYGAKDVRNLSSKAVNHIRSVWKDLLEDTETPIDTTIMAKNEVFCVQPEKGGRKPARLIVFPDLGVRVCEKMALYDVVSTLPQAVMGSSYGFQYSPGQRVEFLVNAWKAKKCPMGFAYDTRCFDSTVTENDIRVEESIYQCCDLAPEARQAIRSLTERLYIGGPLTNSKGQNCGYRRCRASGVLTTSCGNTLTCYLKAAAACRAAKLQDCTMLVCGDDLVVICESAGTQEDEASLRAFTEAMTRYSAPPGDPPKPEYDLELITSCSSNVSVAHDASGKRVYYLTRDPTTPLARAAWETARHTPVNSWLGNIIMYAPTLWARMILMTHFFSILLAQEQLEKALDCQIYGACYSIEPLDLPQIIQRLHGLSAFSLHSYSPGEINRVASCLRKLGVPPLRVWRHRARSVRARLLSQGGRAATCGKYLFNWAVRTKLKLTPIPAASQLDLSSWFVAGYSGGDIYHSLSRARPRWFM
Outline: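 SPA detection of 3H-UTP (0.29 μM) incorporation by C-terminally truncated (18 aa) genotype 1b NS5B from E. coli, on polyA/biotin-oligo-dT12 at 30° C, pH 7.5 Hepes, 2% DMSO. Modified format: 14 nM enzyme, 0.2 nM template, 20 nM primer prebound to beads, 4 h; standard: 28 nM, 6 nM, 180 nM free primer, 60 min. Seven-point IC50 fit.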

HCV replicon cells = test: HCV replicon FRET / luciferase assay; assay type: cell-based; conditions: Hepatitis C virus; HCV replicon cells, FRET or luciferase readout; read-out: EC50
Outline: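 Readout was NS3 protease cleavage of an EDANS/DABCYL FRET peptide (20 μM final) in lysed HCV replicon cells, or Renilla luciferase in reporter replicons. Background came from wells with the highest level of control protease inhibitor. EC50 marked the concentration giving 50% signal reduction.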

SMILES	pIC50 (HCV NS5B)	pEC50 (HCV replicon cells)
COc1ccc2c(c1)C=C(c1c(C(=O)N3CCOCC3)cnn1C)Cn1c-2c(C2CCCCC2)c2ccc(C(=O)NS(=O)(=O)N(C)C)cc21	6.30 to 9.00	6.30 to 9.00
COc1ccc2c(c1)C=C(c1c(C(=O)N3CCOCC3)cnn1C)Cn1c-2c(C2CCCCC2)c2ccc(C(=O)O)cc21	6.30 to 9.00	6.30 to 9.00
CCN(CC)C(=O)c1sccc1C1=Cc2cc(OC)ccc2-c2c(C3CCCCC3)c3ccc(C(=O)NS(=O)(=O)N(C)C)cc3n2C1	6.30 to 9.00	6.30 to 9.00
CCn1ncc(C(=O)N2CCN(C)CC2)c1C1=Cc2cc(OC)ccc2-c2c(C3CCCCC3)c3ccc(C(=O)NS(=O)(=O)N4CCCC4)cc3n2C1	6.30 to 9.00	6.30 to 9.00
CCn1ncc(C(=O)N2CCN(C)CC2)c1C1=Cc2cc(OC)ccc2-c2c(C3CCCCC3)c3ccc(C(=O)NS(=O)(=O)N(C)C)cc3n2C1	6.30 to 9.00	6.30 to 9.00
CCn1ncc(C(=O)N2CCOCC2)c1C1=Cc2cc(OC)ccc2-c2c(C3CCCCC3)c3ccc(C(=O)NS(=O)(=O)N4CCCC4)cc3n2C1	6.30 to 9.00	6.30 to 9.00
CCn1ncc(C(=O)N2CCOCC2)c1C1=Cc2cc(OC)ccc2-c2c(C3CCCCC3)c3ccc(C(=O)NS(=O)(=O)C(C)C)cc3n2C1	6.30 to 9.00	6.30 to 9.00
CCn1ncc(C(=O)N2CCOCC2)c1C1=Cc2cc(OC)ccc2-c2c(C3CCCCC3)c3ccc(C(=O)NS(=O)(=O)N(C)C)cc3n2C1	6.30 to 9.00	6.30 to 9.00
CCn1ncc(C(=O)N2CCOCC2)c1C1=Cc2cc(OC)ccc2-c2c(C3CCCCC3)c3ccc(C(=O)N4CCOCC4)cc3n2C1	< 6.30	6.30 to 9.00
COc1ccc2c(c1)C=C(c1ocnc1C(=O)N1CCOCC1)Cn1c-2c(C2CCCCC2)c2ccc(C(=O)NS(=O)(=O)N3CCOCC3)cc21	6.30 to 9.00	6.30 to 9.00
COc1ccc2c(c1)C=C(c1ocnc1C(=O)N1CCOCC1)Cn1c-2c(C2CCCCC2)c2ccc(C(=O)NS(=O)(=O)C3CC3)cc21	6.30 to 9.00	6.30 to 9.00
CCOC(=O)c1cnn(C)c1C1=Cc2cc(OC)ccc2-c2c(C3CCCCC3)c3ccc(C(=O)OC(C)(C)C)cc3n2C1	< 7.40	6.30 to 9.00
CCOC(=O)c1cnn(C)c1C1=Cc2cc(OC)ccc2-c2c(C3CCCCC3)c3ccc(C(=O)O)cc3n2C1	6.30 to 9.00	6.30 to 9.00
CCOC(=O)c1cnn(C)c1C1=Cc2cc(OC)ccc2-c2c(C3CCCCC3)c3ccc(C(=O)NS(=O)(=O)C(C)C)cc3n2C1	6.30 to 9.00	6.30 to 9.00
COc1ccc2c(c1)C=C(c1c(C(=O)N(C)C3CCN(C)C3)cnn1C)Cn1c-2c(C2CCCCC2)c2ccc(C(=O)NS(=O)(=O)N3CCOCC3)cc21 (stereo not drawn)	6.30 to 9.00	6.30 to 9.00
COc1ccc2c(c1)C=C(c1c(C(=O)N3CCCN(C)CC3)cnn1C)Cn1c-2c(C2CCCCC2)c2ccc(C(=O)NS(=O)(=O)N3CCOCC3)cc21	> 7.70	6.30 to 9.00
COc1ccc2c(c1)C=C(c1c(C(=O)N3CCC(N(C)C)C3)cnn1C)Cn1c-2c(C2CCCCC2)c2ccc(C(=O)NS(=O)(=O)N3CCOCC3)cc21 (stereo not drawn)	6.30 to 9.00	6.30 to 9.00
COc1ccc2c(c1)C=C(c1c(C(=O)N3CCOCC3)cnn1C)Cn1c-2c(C2CCCCC2)c2ccc(C(=O)NS(=O)(=O)N3CCOCC3)cc21	> 7.70	6.30 to 9.00
COc1ccc2c(c1)C=C(c1c(C(=O)N3CCOC(CN(C)C)C3)cnn1C)Cn1c-2c(C2CCCCC2)c2ccc(C(=O)NS(=O)(=O)N3CCOCC3)cc21 (stereo not drawn)	6.30 to 9.00	6.30 to 9.00
COc1ccc2c(c1)C=C(c1c(C(=O)N3C[C@@H](C)O[C@@H](C)C3)cnn1C)Cn1c-2c(C2CCCCC2)c2ccc(C(=O)NS(=O)(=O)N3CCOCC3)cc21	6.30 to 9.00	6.30 to 9.00
COc1ccc2c(c1)C=C(c1c(C(=O)N3CCN4CCCC4C3)cnn1C)Cn1c-2c(C2CCCCC2)c2ccc(C(=O)NS(=O)(=O)N3CCOCC3)cc21 (stereo not drawn)	6.30 to 9.00	6.30 to 9.00
COc1ccc2c(c1)C=C(c1c(C(=O)N3CCN4CCC3CC4)cnn1C)Cn1c-2c(C2CCCCC2)c2ccc(C(=O)NS(=O)(=O)N3CCOCC3)cc21	6.30 to 9.00	6.30 to 9.00
CCN1C[C@@H]2C[C@H]1CN2C(=O)c1cnn(C)c1C1=Cc2cc(OC)ccc2-c2c(C3CCCCC3)c3ccc(C(=O)NS(=O)(=O)N4CCOCC4)cc3n2C1	6.30 to 9.00	6.30 to 9.00
COc1ccc2c(c1)C=C(c1c(C(=O)N3CCN(C)CC3)cnn1C)Cn1c-2c(C2CCCCC2)c2ccc(C(=O)NS(=O)(=O)N3CCOCC3)cc21	6.30 to 9.00	6.30 to 9.00
